Where two headings read alike, the source gives them in different places.
Test system: HIV-1 (H9IIIB or NL4-3 virus) replication in MT4-GFP cells
Experiment: microbe, parasite or virus in culture
Assay type: cell-based
Conditions: inhibition of reproductive ratio R0, 48-72 h post-infection
[1] = Human immunodeficiency virus 1, NL43, MT4-GFP cells infected with HIV-1, 100% normal human serum, read-out: ViKinG IP (nM) with 100% NHS
[2] = Human immunodeficiency virus 1, NL43, MT4-GFP cells infected with HIV-1, serum free conditions (0% NHS), read-out: ViKinG IP (nM) with 0% NHS
[3] = MT4-GFP cells infected with HIV-1, 100% normal human serum, read-out: ViKinG IP (nM) with 100% NHS
[4] = MT4-GFP cells infected with HIV-1, serum free conditions (0% NHS), read-out: ViKinG IP (nM) with 0% NHS

Row | Structure (SMILES) | IC50 [1] | IC50 [2] | IC50 [3] | IC50 [4] | IC50 (Human immunodeficiency virus 1, NL43, MT4-GFP cells infected with HIV-1, 10% normal human serum, read-out: ViKinG IP (nM) with 10% NHS)
1 | CCCN1C(=O)c2c(O)c(=O)c(C(=O)NCc3ccc(F)cc3F)cn2CC12CCOC2 (racemic) [Compound 67] | 3600 nM | 6.6 nM |  |  | 
2 | CCOP(=O)(CCCN1n2cc(C(=O)NCc3ccc(F)cc3F)c(=O)c(O)c2C(=O)N(C)C12CCOC2)OCC (racemic) [Compound 161] | 227 nM |  |  |  | 
3 | CCN1C(=O)c2c(O)c(=O)c(-c3nnc(Cc4ccc(F)cc4F)s3)cn2N(C)C12CCOC2 (single isomer, unassigned) [Compound 35] |  |  | 133 nM | 1.7 nM | 
4 | CCN1C(=O)c2c(O)c(=O)c(-c3nnc(Cc4ccc(F)cc4F)s3)cn2N(C)C12CCOC2 (single isomer, unassigned) [Compound 36] |  |  | 368 nM | 3.8 nM | 
5 | COCCN1C(=O)c2c(O)c(=O)c(C(=O)NCc3ccc(F)cc3F)cn2CC12CCOC2 (single isomer, unassigned) [Compound 49] | 123 nM | 2.9 nM |  |  | 
6 | COCCN1C(=O)c2c(O)c(=O)c(C(=O)NCc3ccc(F)cc3F)cn2CC12CCOC2 (single isomer, unassigned) [Compound 50] |  |  | 107 nM | 3.1 nM | 
7 | COCCN1C(=O)c2c(O)c(=O)c(C(=O)NCc3ccc(F)cc3)cn2CC12CCOC2 (single isomer, unassigned) [Compound 51] | 196 nM | 4.8 nM |  |  | 
8 | COCCN1C(=O)c2c(O)c(=O)c(C(=O)NCc3ccc(F)c(Cl)c3)cn2CC12CCOC2 (single isomer, unassigned) [Compound 52] | 2000 nM | 4.8 nM |  |  | 
9 | COCCN1C(=O)c2c(O)c(=O)c(C(=O)NCc3ccc(F)c(C)c3F)cn2CC12CCOC2 (single isomer, unassigned) [Compound 53] | 2570 nM | 5.3 nM |  |  | 
10 | COCCN1C(=O)c2c(O)c(=O)c(C(=O)NCc3ccc(F)c(Cl)c3F)cn2CC12CCOC2 (single isomer, unassigned) [Compound 54] | 989 nM | 2.3 nM |  |  | 
11 | CN1C(=O)c2c(O)c(=O)c(C(=O)NCc3ccc(F)c(Cl)c3F)cn2CC12CCOC2 (single isomer, unassigned) [Compound 56] | 100 nM | 1.2 nM |  |  | 
12 | CN1C(=O)c2c(O)c(=O)c(C(=O)NCc3ccc(F)cc3F)cn2CC12CCOC2 (single isomer, unassigned) [Compound 57] | 36 nM | 1.6 nM |  |  | 
13 | CN1C(=O)c2c(O)c(=O)c(C(=O)NCc3ccc(F)cc3F)cn2CC12CCOC2 (single isomer, unassigned) [Compound 58] |  |  | 27 nM | 1.9 nM | 5 nM
14 | CN1C(=O)c2c(O)c(=O)c(C(=O)NCc3ccc(F)cc3)cn2CC12CCOC2 (single isomer, unassigned) [Compound 59] | 56 nM | 1.9 nM |  |  | 
15 | CN1C(=O)c2c(O)c(=O)c(C(=O)NCc3ccc(F)cc3)cn2CC12CCOC2 (single isomer, unassigned) [Compound 60] |  |  | 42 nM | 3.1 nM | 
16 | CN1C(=O)c2c(O)c(=O)c(C(=O)NCc3ccc(F)c(Cl)c3)cn2CC12CCOC2 (single isomer, unassigned) [Compound 61] | 119 nM | 2.4 nM |  |  | 
17 | CN1C(=O)c2c(O)c(=O)c(C(=O)NCc3ccc(F)c(Cl)c3)cn2CC12CCOC2 (single isomer, unassigned) [Compound 62] |  |  | 72 nM | 3.1 nM | 
18 | CN1C(=O)c2c(O)c(=O)c(C(=O)NCc3c(F)cc(F)cc3F)cn2CC12CCOC2 (single isomer, unassigned) [Compound 63] | 17 nM | 1.9 nM |  |  | 
19 | CN1C(=O)c2c(O)c(=O)c(C(=O)NCc3c(F)cc(F)cc3F)cn2CC12CCOC2 (single isomer, unassigned) [Compound 64] |  |  | 26 nM | 3.3 nM | 
20 | CN1C(=O)c2c(O)c(=O)c(C(=O)NCc3cccc(Cl)c3F)cn2CC12CCOC2 (single isomer, unassigned) [Compound 65] | 60 nM | 1.5 nM |  |  | 
21 | CN1C(=O)c2c(O)c(=O)c(C(=O)NCc3cccc(Cl)c3F)cn2CC12CCOC2 (single isomer, unassigned) [Compound 66] |  |  | 40 nM | 1.5 nM | 
22 | COCCN1C(=O)c2c(O)c(=O)c(C(=O)NCc3ccc(F)c(F)c3F)cn2CC12CCOC2 (single isomer, unassigned) [Compound 71] | 350 nM | 3.7 nM |  |  | 
23 | COCCN1C(=O)c2c(O)c(=O)c(C(=O)NCc3ccc(F)c(F)c3F)cn2CC12CCOC2 (single isomer, unassigned) [Compound 72] |  |  | 290 nM | 4.6 nM | 
24 | COCCCN1C(=O)c2c(O)c(=O)c(C(=O)NCc3ccc(F)cc3F)cn2CC12CCOC2 (single isomer, unassigned) [Compound 73] | 30 nM | 1.8 nM |  |  | 

Row | Structure (SMILES) | IC50 [1] | IC50 [2] | IC50 [3] | IC50 [4] | IC50 (Human immunodeficiency virus 1, NL43, MT4-GFP cells infected with HIV-1, 10% normal human serum, read-out: ViKinG IP (nM) with 10% NHS)
25 | COCCCN1C(=O)c2c(O)c(=O)c(C(=O)NCc3ccc(F)cc3F)cn2CC12CCOC2 (single isomer, unassigned) [Compound 74] |  |  | 28 nM | 3.3 nM | 
26 | COCN1C(=O)c2c(O)c(=O)c(C(=O)NCc3ccc(F)cc3F)cn2CC12CCOC2 (single isomer, unassigned) [Compound 75] |  | 1.8 nM | 559 nM |  | 
27 | COCN1C(=O)c2c(O)c(=O)c(C(=O)NCc3ccc(F)cc3F)cn2CC12CCOC2 (single isomer, unassigned) [Compound 76] |  |  | 151 nM | 2.4 nM | 
28 | CCOCCN1C(=O)c2c(O)c(=O)c(C(=O)NCc3ccc(F)cc3F)cn2CC12CCOC2 (single isomer, unassigned) [Compound 77] | 96 nM | 3 nM |  |  | 
29 | CCOCCN1C(=O)c2c(O)c(=O)c(C(=O)NCc3ccc(F)cc3F)cn2CC12CCOC2 (single isomer, unassigned) [Compound 78] |  |  | 55 nM | 2.3 nM | 
30 | CCOCCN1C(=O)c2c(O)c(=O)c(C(=O)NCc3cccc(Cl)c3F)cn2CC12CCOC2 (single isomer, unassigned) [Compound 79] |  | 2.3 nM | 603 nM |  | 
31 | CCOCCN1C(=O)c2c(O)c(=O)c(C(=O)NCc3cccc(Cl)c3F)cn2CC12CCOC2 (single isomer, unassigned) [Compound 80] |  |  | 217 nM | 1.7 nM | 
32 | COCCN1C(=O)c2c(O)c(=O)c(C(=O)NCc3ccc(F)cc3F)cn2CC12CCCOC2 (single isomer, unassigned) [Compound 83] | 3050 nM | 7.8 nM |  |  | 
33 | COCCN1C(=O)c2c(O)c(=O)c(C(=O)NCc3ccc(F)cc3F)cn2CC12CCCOC2 (single isomer, unassigned) [Compound 84] |  |  | 1960 nM | 4.5 nM | 
34 | COCCCN1C(=O)c2c(O)c(=O)c(C(=O)NCc3ccc(F)cc3F)cn2CC12CCCOC2 (single isomer, unassigned) [Compound 85] |  | 5.4 nM | 78 nM |  | 
35 | COCCCN1C(=O)c2c(O)c(=O)c(C(=O)NCc3ccc(F)cc3F)cn2CC12CCCOC2 (single isomer, unassigned) [Compound 86] |  |  | 177 nM | 9.3 nM | 
36 | CN1C(=O)c2c(O)c(=O)c(C(=O)NCc3c(F)cc(F)cc3F)cn2N(C)C12CCOC2 (single isomer, unassigned) [Compound 105] | 37 nM | 0.8 nM |  |  | 
37 | CN1C(=O)c2c(O)c(=O)c(C(=O)NCc3c(F)cc(F)cc3F)cn2N(C)C12CCOC2 (single isomer, unassigned) [Compound 106] |  |  | 27 nM | 0.6 nM | 
38 | CN1C(=O)c2c(O)c(=O)c(C(=O)NCc3ccc(F)c(Cl)c3)cn2N(C)C12CCOC2 (single isomer, unassigned) [Compound 107] |  | 1.2 nM | 790 nM |  | 
39 | CN1C(=O)c2c(O)c(=O)c(C(=O)NCc3ccc(F)c(Cl)c3)cn2N(C)C12CCOC2 (single isomer, unassigned) [Compound 108] |  |  | 218 nM | 1.1 nM | 
40 | CN1C(=O)c2c(O)c(=O)c(C(=O)NCc3cccc(Cl)c3F)cn2N(C)C12CCOC2 (single isomer, unassigned) [Compound 109] | 229 nM | 0.6 nM |  |  | 
41 | CN1C(=O)c2c(O)c(=O)c(C(=O)NCc3cccc(Cl)c3F)cn2N(C)C12CCOC2 (single isomer, unassigned) [Compound 110] |  |  | 121 nM |  | 
42 | CN1C(=O)c2c(O)c(=O)c(C(=O)NCc3ccccc3F)cn2N(C)C12CCOC2 (single isomer, unassigned) [Compound 111] | 158 nM | 1.6 nM |  |  | 
43 | CN1C(=O)c2c(O)c(=O)c(C(=O)NCc3ccccc3F)cn2N(C)C12CCOC2 (single isomer, unassigned) [Compound 112] |  |  | 231 nM | 0.9 nM | 
44 | CN1C(=O)c2c(O)c(=O)c(C(=O)NCc3ccc(F)cc3)cn2N(C)C12CCOC2 (single isomer, unassigned) [Compound 113] | 94 nM | 1.5 nM |  |  | 
45 | CN1C(=O)c2c(O)c(=O)c(C(=O)NCc3ccc(F)cc3)cn2N(C)C12CCOC2 (single isomer, unassigned) [Compound 114] |  |  | 87 nM | 0.8 nM | 
46 | CN1C(=O)c2c(O)c(=O)c(C(=O)NCc3c(F)cccc3F)cn2N(C)C12CCOC2 (single isomer, unassigned) [Compound 115] | 54 nM | 1.2 nM |  |  | 
47 | CN1C(=O)c2c(O)c(=O)c(C(=O)NCc3c(F)cccc3F)cn2N(C)C12CCOC2 (single isomer, unassigned) [Compound 116] |  |  | 42 nM | 0.7 nM | 
48 | CN1C(=O)c2c(O)c(=O)c(C(=O)NCc3ccc(F)c(Cl)c3F)cn2N(C)C12CCOC2 (single isomer, unassigned) [Compound 117] |  | 0.5 nM | 246 nM |  | 
